# Reference: patent publication US10750743B2, “Pyridazinone herbicides” (E.I. DU PONT DE NEMOURS AND COMPANY, priority 2015, dated 2020)
# How the values were obtained:
# Format in all cases: in vivo
# [1] = test system: barnyardgrass (Echinochloa crus-galli); test: Test A preemergence, directed soil spray, visual injury rating; conditions: Echinochloa crus-galli, pre-emergence, 240 h, 0 is no effect, 100 is complete control, read-out: Plant response rating (0 to 100 scale), Barnyardgrass; for pest or weed control at 125 g/ha: 125 g ai/ha; for pest or weed control at 500 g/ha: 500 g ai/ha
# Method in brief: (§1)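 Seeds sown in a loam soil–sand blend received a directed preemergence soil spray of test chemical in a non-phytotoxic solvent mixture with surfactant. Postemergence plants were sprayed at 2 to 10 cm, one- to two-leaf stage. After approximately 10 d in greenhouse, injury was visually rated 0 (no effect) to 100 (complete control) against untreated controls.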
# [2] = test system: ragweed (common ragweed, Ambrosia elatior); test: as above; conditions: Ambrosia artemisiifolia, pre-emergence, 240 h, 0 is no effect, 100 is complete control, read-out: Plant response rating (0 to 100 scale), Ragweed; for pest or weed control at 125 g/ha: 125 g ai/ha; for pest or weed control at 500 g/ha: 500 g ai/ha
# Method in brief: as §1
# [3] = test system: foxtail, giant (giant foxtail, Setaria faberii); test: as above; conditions: Setaria faberi, pre-emergence, 240 h, 0 is no effect, 100 is complete control, read-out: Plant response rating (0 to 100 scale), Foxtail, Giant; for pest or weed control at 125 g/ha: 125 g ai/ha; for pest or weed control at 500 g/ha: 500 g ai/ha
# Method in brief: as §1
# kochia (Kochia scoparia) = test: as above; conditions: Bassia scoparia, pre-emergence, 240 h, 0 is no effect, 100 is complete control, read-out: Plant response rating (0 to 100 scale), Kochia; for pest or weed control at 125 g/ha: 125 g ai/ha; for pest or weed control at 500 g/ha: 500 g ai/ha
# Method in brief: as §1
# [4] = test system: pigweed (Amaranthus retroflexus); test: as above; conditions: Amaranthus retroflexus, pre-emergence, 240 h, 0 is no effect, 100 is complete control, read-out: Plant response rating (0 to 100 scale), Pigweed; for pest or weed control at 125 g/ha: 125 g ai/ha; for pest or weed control at 500 g/ha: 500 g ai/ha
# Method in brief: as §1
# [5] = test system: ryegrass, It. (Italian ryegrass, Lolium multiflorum); test: as above; conditions: Lolium multiflorum, pre-emergence, 240 h, 0 is no effect, 100 is complete control, read-out: Plant response rating (0 to 100 scale), Ryegrass, It.; for pest or weed control at 125 g/ha: 125 g ai/ha; for pest or weed control at 500 g/ha: 500 g ai/ha
# Method in brief: as §1
# corn (Zea mays) = test: Test A postemergence application, visual injury rating; conditions: Zea mays, post-emergence, 240 h, 0 to 100 scale, 0 no effect, 100 complete control, read-out: Corn plant response rating; for plant injury at 125 g/ha: 125 g ai/ha; for plant injury at 500 g/ha: 500 g ai/ha
# Method in brief: as §1
# [6] = test system: galium (catchweed bedstraw, Galium aparine); test: as above; conditions: Galium, post-emergence, 240 h, 0 to 100 scale, 0 no effect, 100 complete control, read-out: Galium plant response rating; for pest or weed control at 125 g/ha: 125 g ai/ha; for pest or weed control at 500 g/ha: 500 g ai/ha
# Method in brief: as §1
# [7] = test system: barnyardgrass (Echinochloa crus-galli); test: as above; conditions: Echinochloa crus-galli, post-emergence, 240 h, 0 to 100 scale, 0 no effect, 100 complete control, read-out: Barnyardgrass plant response rating; for pest or weed control at 125 g/ha: 125 g ai/ha; for pest or weed control at 500 g/ha: 500 g ai/ha
# Method in brief: as §1
# [8] = test system: blackgrass (Alopecurus myosuroides); test: as above; conditions: Alopecurus myosuroides, post-emergence, 240 h, 0 to 100 scale, 0 no effect, 100 complete control, read-out: Blackgrass plant response rating; for pest or weed control at 125 g/ha: 125 g ai/ha; for pest or weed control at 500 g/ha: 500 g ai/ha
# Method in brief: as §1
# [9] = test system: ragweed (common ragweed, Ambrosia elatior); test: as above; conditions: Ambrosia artemisiifolia, post-emergence, 240 h, 0 to 100 scale, 0 no effect, 100 complete control, read-out: Ragweed plant response rating; for pest or weed control at 125 g/ha: 125 g ai/ha; for pest or weed control at 500 g/ha: 500 g ai/ha
# Method in brief: as §1
# [10] = test system: wheat (Triticum aestivum); test: as above; conditions: Triticum aestivum, post-emergence, 240 h, 0 to 100 scale, 0 no effect, 100 complete control, read-out: Wheat plant response rating; for plant injury at 125 g/ha: 125 g ai/ha; for plant injury at 500 g/ha: 500 g ai/ha
# Method in brief: as §1
# [11] = test system: pigweed (Amaranthus retroflexus); test: as above; conditions: Amaranthus retroflexus, post-emergence, 240 h, 0 to 100 scale, 0 no effect, 100 complete control, read-out: Pigweed plant response rating; for pest or weed control at 125 g/ha: 125 g ai/ha; for pest or weed control at 500 g/ha: 500 g ai/ha
# Method in brief: as §1
# [12] = test system: ryegrass, It. (Italian ryegrass, Lolium multiflorum); test: as above; conditions: Lolium multiflorum, post-emergence, 240 h, 0 to 100 scale, 0 no effect, 100 complete control, read-out: Ryegrass, It. plant response rating; for pest or weed control at 125 g/ha: 125 g ai/ha; for pest or weed control at 500 g/ha: 500 g ai/ha
# Method in brief: as §1
# [13] = test system: ducksalad (Heteranthera limosa); test: Test B flooded paddy test, visual rating; conditions: Heteranthera limosa, 360 h; Flood, 250 g ai/ha, applied to paddy water, rated after 13 to 15 d; read-out: Ducksalad plant response rating (0 to 100 scale, 0 is no effect, 100 is complete control)
# Method in brief: (§2)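 Plants at the 2-leaf stage were flooded to 3 cm above soil, and test compounds were applied directly into the paddy water, which was held at that depth throughout. After 13 to 15 d in a greenhouse, injury was rated visually against untreated controls on a 0–100 scale (0 no effect, 100 complete control).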
# [14] = test system: barnyardgrass (Echinochloa crus-galli); test: Test B flooded paddy test, visual rating; conditions: Echinochloa crus-galli, 360 h; Flood, 250 g ai/ha, applied to paddy water, rated after 13 to 15 d; read-out: Barnyardgrass plant response rating (0 to 100 scale, 0 is no effect, 100 is complete control)
# Method in brief: as §2
# rice (Oryza sativa) = test: Test B flooded paddy test, visual rating; conditions: Oryza sativa, 360 h; Flood, 250 g ai/ha, applied to paddy water, rated after 13 to 15 d; read-out: Rice plant response rating (0 to 100 scale, 0 is no effect, 100 is complete control)
# Method in brief: as §2
# [15] = test system: sedge, umbrella (small-flower umbrella sedge, Cyperus difformis); test: Test B flooded paddy test, visual rating; conditions: Cyperus difformis, 360 h; Flood, 250 g ai/ha, applied to paddy water, rated after 13 to 15 d; read-out: Sedge, Umbrella plant response rating (0 to 100 scale, 0 is no effect, 100 is complete control)
# Method in brief: as §2
Structure (SMILES),pest or weed control at 125 g/ha [1] [%],pest or weed control at 500 g/ha [1] [%],pest or weed control at 125 g/ha [2] [%],pest or weed control at 500 g/ha [2] [%],pest or weed control at 125 g/ha [3] [%],pest or weed control at 500 g/ha [3] [%],pest or weed control at 125 g/ha (kochia (Kochia scoparia)) [%],pest or weed control at 500 g/ha (kochia (Kochia scoparia)) [%],pest or weed control at 125 g/ha [4] [%],pest or weed control at 500 g/ha [4] [%],pest or weed control at 125 g/ha [5] [%],pest or weed control at 500 g/ha [5] [%],plant injury at 125 g/ha (corn (Zea mays)) [%],plant injury at 500 g/ha (corn (Zea mays)) [%],pest or weed control at 125 g/ha [6] [%],pest or weed control at 500 g/ha [6] [%],pest or weed control at 125 g/ha [7] [%],pest or weed control at 500 g/ha [7] [%],pest or weed control at 125 g/ha [8] [%],pest or weed control at 500 g/ha [8] [%],other results
"Cc1cc2ccc(C)c(-c3c(O)c(C)nn(C)c3=O)c2o1 [Compound 10, 4-(2,6-dimethyl-7-benzofuranyl)-5-hydroxy-2,6-dimethyl-3(2H)-pyridazinone]",80,90,90,90,80,100,100,100,100,100,100,100,10,30,100,100,50,90,60,90,pest or weed control at 125 g/ha [9]: 100%; pest or weed control at 500 g/ha [9]: 100%; plant injury at 125 g/ha [10]: 20%; plant injury at 500 g/ha [10]: 60%; pest or weed control at 125 g/ha [11]: 90%; pest or weed control at 500 g/ha [11]: 100%; pest or weed control at 125 g/ha [12]: 100%; pest or weed control at 500 g/ha [12]: 100%; pest or weed control at 250 g/ha [13]: 0%; pest or weed control at 250 g/ha [14]: 0%; plant injury at 250 g/ha (rice (Oryza sativa)): 0%; pest or weed control at 250 g/ha [15]: 0%
"Cc1cc2cccc(-c3c(O)c(C)nn(C)c3=O)c2o1 [Compound 12, 5-hydroxy-2,6-dimethyl-4-(2-methyl-7-benzofuranyl)-3(2H)-pyridazinone]",0,50,60,80,10,60,60,100,60,100,100,100,0,10,80,90,10,30,40,80,pest or weed control at 125 g/ha [9]: 40%; pest or weed control at 500 g/ha [9]: 80%; plant injury at 125 g/ha [10]: 0%; plant injury at 500 g/ha [10]: 20%; pest or weed control at 125 g/ha [11]: 30%; pest or weed control at 500 g/ha [11]: 50%; pest or weed control at 125 g/ha [12]: 90%; pest or weed control at 500 g/ha [12]: 100%; pest or weed control at 250 g/ha [13]: 0%; pest or weed control at 250 g/ha [14]: 0%; plant injury at 250 g/ha (rice (Oryza sativa)): 0%; pest or weed control at 250 g/ha [15]: 0%
"CC(=O)Oc1c(C)nn(C)c(=O)c1-c1cccc2cc(C)oc12 [Compound 13, 5-(acetyloxy)-2,6-dimethyl-4-(2-methyl-7-benzofuranyl)-3 (2H)-pyridazinone]",20,60,40,80,10,60,0,100,40,100,100,100,0,20,80,90,0,50,60,80,pest or weed control at 125 g/ha [9]: 50%; pest or weed control at 500 g/ha [9]: 70%; plant injury at 125 g/ha [10]: 0%; plant injury at 500 g/ha [10]: 20%; pest or weed control at 125 g/ha [11]: 60%; pest or weed control at 500 g/ha [11]: 70%; pest or weed control at 125 g/ha [12]: 90%; pest or weed control at 500 g/ha [12]: 100%
